Test [1] has as its system diet-induced obese (DIO) mice. Briefly: Effects on food intake, body weight and body composition in DIO mice. The class given is in vivo. The settings on record: for Fat mass loss (g fat weight change for 14 days) / Total food intake (g total for 14 days) / Overall weight loss (g weight change for 14 days): DIO mice. Here is the method:
Effects on Food Intake, Body Weight and Body Composition in Diet-Induced Obese (DIO) Mice
Three to four months old male diet-induced obese (DIO) mice are used. Animals are individually housed in a temperature-controlled (24° C.) facility with a 12 hour light/dark cycle (lights on 22:00), and have free access to food and water. After 2 weeks acclimation to the facility, mice are randomized to treatment groups (n=8-10/group) so that each group has similar mean body weight and fat mass. Before the experiment, mice are subcutaneously (sc) injected with vehicle solution and weighed for 7 days to acclimate them to the procedures.
Vehicle or peptide analog (dose range 10-100 nmol/Kg) dissolved in vehicle is administered by sc injection to ad libitum fed DIO mice 30-90 minutes prior to the onset of the dark cycle […] for 2 to 4 weeks. Body weight and the weight of food plus the hopper are measured at the same time. Food consumed in the last 24 hours is calculated by subtracting current weight of food plus the hopper from that of the previous day. Absolute changes in body weight are calculated by subtracting the body weight of the animal prior to the first injection. On days −1 and 14, total fat mass is measured by nuclear magnetic resonance (NMR) using an Echo Medical System (Houston, Tex.) instrument. Fat free mass is calculated by subtracting fat mass from total body weight.

Another test has as its target T1, hGlucR (Homo sapiens, UniProt P47871).
T1 construct: expressed in transfected cells; host or cells: 293HEK, Hygromycin-selected, phD expression plasmid
Briefly: Glucagon receptor (hGlucR) binding assay (SPA, I-125 glucagon). The settings on record: hGlucR 293HEK membranes. The method, then:
The hGlucR cDNA is subcloned into the expression plasmid phD (Trans-activated expression of fully gamma-carboxylated recombinant human protein C, an antithrombotic factor. Grinnell, B. W., et. al., Bio/Technology 5: 1189-1192 (1987)). This plasmid DNA is transfected into 293HEK cells and selected with 200 μg/mL Hygromycin.
Crude plasma membranes are prepared using cells from suspension culture. The cells are lysed on ice in hypotonic buffer containing 25 mM Tris HCl, pH 7.5, 1 mM MgCl2, DNAse1, 20 μ/mL, and Roche Complete™ Inhibitors without EDTA. The cell suspension is homogenized with a glass dounce homogenizer using a Teflon® pestle for 25 strokes. The homogenate is centrifuged at 4° C. at 1800×g for 15 minutes. The supernatant is collected and the pellet is resuspended in hypotonic buffer and rehomogenized. The mixture is centrifuged at 1800×g for 15 minutes. The second supernatant is combined with the first supernatant. […]
The binding buffer contains 25 mM 4-(2-hydroxyethyl)-1-piperazineethanesulfonic acid (HEPES), pH 7.4, 2.5 mM CaCl2, 1 mM MgCl2, 0.1% fatty acid free BSA, 0.003% Tween20, and Roche Complete™ Inhibitors without EDTA. […] Plates are read with a PerkinElmer Life and Analytical Sciences Trilux MicroBeta® scintillation counter after 12 hours of settling time at room temperature.
Results are calculated as a percent of specific I-125-glucagon binding in the presence of compound. […]

The test system of test [2] is diet-induced obese Long Evans rats. Briefly: Effects on food intake, body weight, body composition and plasma lipids in DIO Long Evans rats. The class given is in vivo. The method, then: Four to five months old male diet-induced obese Long Evans rats are used. Animals are individually housed in a temperature-controlled (24° C.) facility with a 12 hour light/dark cycle (lights on 22:00), and have free access to food (diet TD95217) and water. Animals are acclimated to the facility for at least 2 weeks. On day 0, body composition is determined by QNMR and rats are randomized to respective groups (n=6/group) based on body weight, % fat, and % lean mass. Compound is administered by subcutaneous injection on days 1, 4, 8, 11, and 15. […] After CO2 euthanasia, blood samples are taken by cardiac stick for analysis of exposure determination.

The subject of a further test is Normal male Wistar rats. Briefly: Intravenous glucose tolerance test in normal rats. In kind it is in vivo. The settings on record: IVGTT; for insulin AUC: 0 to 30 min. Here is the method: Effects on Blood Glucose Excursion During an Intravenous Glucose Tolerance Test in Normal Rats
Normal male Wistar rats (225-250 g) are used in the study. Animals are randomized into groups based on fed body weight and blood glucose. Animals are injected with vehicle or peptide analog (dose 3-400 μg peptide content/kg) 16 hours prior to the start of the test. Food is removed at the time of injection. Prior to the assay the animals are put under anesthesia, Phenobarbital 65 mg/kg i.p., and two catheters are inserted, one in the jugular vein and the other in the carotid artery. At time 0, animals are given 0.5 g glucose/kg through the venous catheter. Blood is collected from the carotid artery at time 0 (pre glucose), 2, 4, 6, 10, 20 and 30 minutes after glucose challenge. Glucose concentration is measured by glucometer. Insulin is measured by Mesoscale®. Efficacy is measured as the increase in total area under the insulin curve (=integrated plasma insulin values from t+0 to 30 min) as well as the area under the glucose curve which is a measure of the glucose excursion following the intravenous glucose challenge.

The next test has as its system DIO mice. Briefly: Oral glucose tolerance test after 2-week treatment in DIO mice. In kind it is in vivo. The settings on record: for Glucose AUC, MEAN: OGTT. Here is the method: Fifty-six hours after the last injection of compound in the DIO study above the animals were subjected to an oral glucose tolerance test. In short, mice were fasted for 16 hours prior to the start of the glucose tolerance test. At time 0, animals are given 2 g/kg dextrose by oral gavage. Blood is collected by tail bleeding taken 0, 15, 30, 60 and 120 minutes after glucose challenge. Glucose concentration is measured by glucometer.

Where no end group is shown, it is not given here. [ ]: non-standard residue; d: D form. 1Nal = N[C@@H](Cc1cccc2ccccc12)C(=O)O; Aib = CC(C)(N)C(=O)O

T1 sequence (P47871 26-477): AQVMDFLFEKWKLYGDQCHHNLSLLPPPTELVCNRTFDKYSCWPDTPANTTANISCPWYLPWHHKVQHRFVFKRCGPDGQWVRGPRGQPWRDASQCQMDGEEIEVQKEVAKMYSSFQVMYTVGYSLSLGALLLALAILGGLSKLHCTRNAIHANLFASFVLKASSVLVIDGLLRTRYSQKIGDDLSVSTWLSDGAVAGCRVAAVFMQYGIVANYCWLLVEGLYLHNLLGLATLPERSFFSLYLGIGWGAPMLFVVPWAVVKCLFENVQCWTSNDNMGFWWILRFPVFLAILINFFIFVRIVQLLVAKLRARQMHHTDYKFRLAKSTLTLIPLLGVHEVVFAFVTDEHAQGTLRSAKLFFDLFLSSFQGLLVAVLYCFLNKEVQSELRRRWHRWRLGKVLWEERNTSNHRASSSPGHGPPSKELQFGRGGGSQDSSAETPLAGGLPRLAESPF

By Ki is commonly meant the dissociation constant of the complex between target and ligand, obtained from inhibition or displacement. A low value points to a stronger hold on the target. “Aib^2, Aib^13, Aib^29, Cys^43(PEG20K), Cys^44 (PEG20K)-GIP (Y[Aib]EGTFTSDYSI[Aib]LDKIAQRAFVQWLIA[Aib]KGKKQEWKHQITQC(PEG 20 kDa)C(PEG 20 kDa)-NH2) [Example 3, GIP analog PEGylated at Cys 43 and 44 with 20 kDa mPEG maleimide]”: the “cumulative food intake and body weight compared to vehicle-treated mice” value in test [1] (14-day DIO mouse studies, summary of Tables 6a and 6b) was “decreased”. The “Fat mass loss (g fat weight change for 14 days)” value in test [1] (Table 6a, 30 nmol/Kg) was -4.3 ± 0.3 g; in test [1] (Table 6a, 100 nmol/Kg) it was -5.6 ± 0.2 g. Besides, the “Total food intake (g total for 14 days)” value came to 26.5 ± 1.5 g in test [1] (Table 6a, 30 nmol/Kg) and 23.4 ± 0.7 g in test [1] (Table 6a, 100 nmol/Kg). In addition, the “Overall weight loss (g weight change for 14 days)” value is -5.5 ± 0.4 g in test [1] (Table 6a, 30 nmol/Kg sc every 3 days) and -7.0 ± 0.3 g in test [1] (Table 6a, 100 nmol/Kg sc every 3 days). In addition, the Ki with hGlucR was above 7.89 µM. In addition, the “free fatty acids (plasma)” value turned out to be 0.94 mEq/L in test [2] (10 nmol/Kg) and 1.01 mEq/L in test [2] (30 nmol/Kg). Moreover, the “total cholesterol (plasma)” value in test [2] (10 nmol/Kg) is 91 mg/dL; in test [2] (30 nmol/Kg) it was 94 mg/dL. In addition, the “triglycerides (plasma)” value in test [2] (10 nmol/Kg) was determined as 262.1 mg/dL; in test [2] (30 nmol/Kg), 233.5 mg/dL. In addition, the fat mass reduced in test [2] (10 nmol/Kg over 16 days) was 1.3%; in test [2] (30 nmol/Kg over 16 days), 2.3%. The lean mass increased stood at 0.6% in test [2] (10 nmol/Kg over 16 days) and 1.3% in test [2] (30 nmol/Kg over 16 days). In test [2] (over 16 days), the “changes in body weight and body composition compared to vehicle-treated DIO rats” value is “increasing the percentage of lean mass and decreasing the percentage of fat mass”. The “amount of free fatty acids” value in test [2] (versus vehicle) is on record as “increased”. In addition, the “amounts of plasma lipids, including triglycerides and total cholesterol” value in test [2] (versus vehicle) is on record as “lowered”. In addition, the “insulin AUC and glucose AUC compared to vehicle-treated rats” value in the test with Normal male Wistar rats is “increased insulin AUC and decreased glucose AUC”. In addition, the figures for the “glucose AUC” value in the test on Normal male Wistar rats (50 μg/Kg) and in the test on Normal male Wistar rats (200 μg/Kg) were 6780 mg·min/dL and 7020 mg·min/dL, respectively. Further, the results for the “insulin AUC” value with Normal male Wistar rats (50 μg/Kg 16 hours before test) and in the test with Normal male Wistar rats (200 μg/Kg 16 hours before test) were 137 ng·min/mL and 183 ng·min/mL, respectively. Moreover, in the test on DIO mice (DIO mice, summary of Tables 7a and 7b), the “glucose excursion following an oral glucose load” value was “significantly reduced”. Moreover, the “Glucose AUC, MEAN” value in the test with DIO mice (Table 7a, 30 nmol/Kg) came to 10293 mg·min/dL; with DIO mice (Table 7a, 100 nmol/Kg), 10892 mg·min/dL.
Consider “Aib^2, Aib^13, Nal^22, Aib^29, Cys^43(PEG20K), Cys^44 (PEG20K)-GIP [Example 5] (Y[Aib]EGTFTSDYSI[Aib]LDKIAQRA[1Nal]VQWLIA[Aib]KGKKQEWKHQITQCC-NH2; not fully specified (residues 43, 44); cysteine pairing not given here) [Nal22 GIP analog PEGylated at Cys 43 and 44 with 20 kDa mPEG iodoacetamide]”, for which the “Fat mass loss (g fat weight change for 14 days)” value was -2.4 ± 0.3 g in test [1] (Table 6b, 10 nmol/Kg) and -3.6 ± 0.4 g in test [1] (Table 6b, 30 nmol/Kg). Further, the “Overall weight loss (g weight change for 14 days)” value in test [1] (Table 6b, 10 nmol/Kg) was -3.2 ± 0.3 g; in test [1] (Table 6b, 30 nmol/Kg), -5.0 ± 0.4 g. Besides, the “Total food intake (g total for 14 days)” value in test [1] (Table 6b, 10 nmol/Kg) is 31.0 ± 1.0 g; in test [1] (Table 6b, 30 nmol/Kg) it was 26.7 ± 0.7 g. Moreover, the “glucose AUC” value came out at 7202 mg·min/dL in the test with Normal male Wistar rats (50 μg/Kg) and 7351 mg·min/dL with Normal male Wistar rats (200 μg/Kg). The “insulin AUC” value in the test on Normal male Wistar rats (50 μg/Kg 16 hours before test) turned out to be 133 ng·min/mL; with Normal male Wistar rats (200 μg/Kg 16 hours before test), 124 ng·min/mL. The “Glucose AUC, MEAN” value in the test with DIO mice (Table 7b, 10 nmol/Kg) came to 14332 mg·min/dL; with DIO mice (Table 7b, 30 nmol/Kg), 12474 mg·min/dL.

These data come from patent US8815811B2, “Peptides and methods for their preparation and use” (Eli Lilly and Company, priority 2010, dated 2014).
